Data on eleven compounds can be found in BindingDB's records for doi:10.1016/0014-2999(79)90202-4 (1979).

5-hydroxytryptamine receptor 7, sequence (P32305 whole entry): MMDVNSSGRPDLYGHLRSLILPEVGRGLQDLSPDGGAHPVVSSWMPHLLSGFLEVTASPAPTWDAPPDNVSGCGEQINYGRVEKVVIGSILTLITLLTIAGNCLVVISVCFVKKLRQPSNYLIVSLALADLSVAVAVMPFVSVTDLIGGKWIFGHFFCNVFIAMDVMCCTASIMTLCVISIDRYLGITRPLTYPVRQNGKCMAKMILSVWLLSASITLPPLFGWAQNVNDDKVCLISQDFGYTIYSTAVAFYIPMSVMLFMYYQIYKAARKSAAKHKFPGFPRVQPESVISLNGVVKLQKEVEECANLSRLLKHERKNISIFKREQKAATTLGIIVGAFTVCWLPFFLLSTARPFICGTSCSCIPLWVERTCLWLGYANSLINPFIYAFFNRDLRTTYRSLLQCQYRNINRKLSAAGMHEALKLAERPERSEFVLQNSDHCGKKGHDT

This test has as its target 5-hydroxytryptamine receptor 7 (Rattus norvegicus, UniProt P32305).
For orientation: Ki means the dissociation constant of the complex between target and ligand, obtained from inhibition or displacement. Read a high Ki as weaker binding. With `CNC[C@H](O)c1cccc(O)c1` [PHENYLEPHRINE], the Ki came to 1400 nM.
Take `c1ccc2c(CC3=NCCN3)cccc2c1` [Naphazoline]: the Ki amounted to 43 nM. Compared with the last compound, the Ki is about 33-fold lower.
With `COc1cc2nc(N3CCN(C(=O)c4ccco4)CC3)nc(N)c2cc1OC` [[3H]-Minipress], the inhibitory constant (Ki) was found to be 0.1 nM. This Ki is about 430-fold lower than that of the compound before.
In turn, `c1cc2c(c(NC3=NCCN3)c1)CCCC2` gave an inhibition constant Ki of 290 nM.
The compound `c1ccc(CC2=NCCN2)cc1` [Tolazoline] returned an inhibition constant (Ki) of 2000 nM. Compared with the last compound, the Ki is about 6.9-fold higher.
As to `CNCC(O)c1ccc(O)c(O)c1` (stereo unspecified) [EPINEPHRINE], the inhibition constant (Ki) worked out at 600 nM. This Ki is about 3.3-fold lower than that of the compound before.
Turning to `c1ccc2c(c1)OCC(CN1CCCCC1)O2` (stereo unspecified) [Piperoxan], the Ki was found to be 360 nM. Against the preceding compound, the Ki is about 1.7-fold lower.
For the compound `COc1cccc(OC)c1OCCNCC1Oc2ccccc2OC1c1ccccc1` (stereo unspecified) [NSC_185453], the affinity corresponds to a Ki of 1 nM.
Compound `O=C(NC1CCN(CCc2c[nH]c3ccccc23)CC1)c1ccccc1` [N-{1-[2-(1H-Indol-3-yl)-ethyl]-piperidin-4-yl}-benzamide(indoramin)] registered a Ki of 5 nM.
For `Cc1cc(C(C)(C)C)c(O)c(C)c1CC1=NCCN1` [SMR000059324], the Ki was determined as 23 nM. This Ki lies about 4.6-fold higher than the previous one.
In the case of `CC(COc1ccccc1)N(CCCl)Cc1ccccc1` (stereo unspecified) it was 0.9 nM.
